Experimental data taken from US9527828B2, “Method for expanding hematopoietic stem cells using heterocyclic compound” (Nissan Chemical Industries, Ltd., priority 2007, dated 2016).

Tested on: CD34^+CD38^− cells
Experiment: Expansion of CD34+CD38− cells from human cord blood-derived CD34+ cells (Example 2)
Type: cell-based
Conditions: Homo sapiens, 168 h, 1 μg/mL compound, 50 ng/mL SCF, StemSpan SFEM, 7 days; based on number of CD34+CD38− cells in the absence of compound; read-out: Expansion efficiency
Method: The human cord blood-derived CD34^+ cells collected or purchased in Example 1 were plated on a 24-well plate (TPP) (10000 cells/1/mL/well). As the culture medium, StemSpan SFEM (Stemcell Technologies) containing 50 ng/mL SCF (Peprotech) was used, and Compounds No. 1 to 133 dissolved in dimethyl sulfoxide were added in an amount of 0.1% (v/v) to a final concentration of 1 μg/mL.
After the cells were incubated in liquid culture at 37° C. for 7 days in a CO2 incubator (5% CO2), the number of viable cells was counted by trypan blue assay. The number of CD34^+CD38^− cells was calculated as follows. After the incubation, the cells in the liquid culture was stained with a CD34 antibody (APC, Becton, Dickinson and Company) and a CD38 antibody (PE, Becton, Dickinson and Company), then washed with PBS(−) containing 2% (v/v) FBS and stained with propidium iodide (Sigma-Aldrich Japan) added to a final concentration of 5 μg/mL. The stained cells were analyzed with a flow cytometer JSAN (Bay Bioscience) to determined the proportion of CD34^+CD38^− cells, which was multiplied by the number of viable cells to calculate the number of CD34^+CD38^− cells.
The expansion efficiencies in the presence of 1 μg/mL of compounds based on the number of CD34^+CD38^− cells in the absence of them are shown in Tables 2 and 3 on a scale of A for expansion efficiencies of 10 or greater, B for expansion efficiencies of at least 5 and less than 10, and C for expansion efficiencies of at least 3 and less than 5.

`C/C(=N\NC(=O)c1ccc(C(=O)N(C)Cc2ccccc2)s1)c1csc(-c2cccc(Cl)c2)c1O` [compound 79] and `CCCN(C)C(=O)c1ccc(C(=O)N/N=C(\C)c2csc(-c3ccc(Cl)cc3)c2O)s1` [compound 76] fall in the same range of fold induction at 1 µg/mL: 3 to 5 for the first, 3 to 5 for the second.

`C/C(=N\NC(=O)c1ccc(C(=O)NCc2ccc(C(N)=O)cc2)s1)c1csc(-c2ccc(C(C)(C)C)cc2)c1O` [compound 86] and `C/C(=N\NC(=O)c1ccc(C(=O)NCc2ccc(C(N)=O)cc2)s1)c1csc(-c2ccc(Br)cc2)c1O` [compound 87] cannot be ordered by fold induction at 1 µg/mL: at least 10 for the first, at least 10 for the second.

Compared with `C/C(=N\NC(=O)c1ccc(C(=O)NCc2cn(C)cn2)s1)c1csc(-c2ccc(OC(F)(F)F)cc2)c1O` [compound 82], `C/C(=N\NC(=O)c1ccc(C(=O)NCc2cc(C)on2)s1)c1csc(-c2ccc(OC(F)(F)F)cc2)c1O` [compound 13] is higher in fold induction at 1 µg/mL: 3 to 5 for the first, at least 10 for the second.

`C/C(=N\NC(=O)c1ccc(C(=O)NCc2cccs2)s1)c1csc(-c2ccc(Cl)cc2)c1` [compound 12] and `C/C(=N\NC(=O)c1ccc(C(=O)NCc2cccs2)s1)c1csc(-c2ccc(Cl)c(Cl)c2)c1O` [compound 25] cannot be ordered by fold induction at 1 µg/mL: at least 10 for the first, 5 to 10 for the second.

`CC(=O)Nc1ccc(C(C)NC(=O)c2ccc(C(=O)N/N=C(\C)c3csc(-c4ccc(Cl)cc4)c3O)s2)cc1` (stereo not drawn) [compound 124] and `COc1ccc(-c2scc(/C(C)=N/NC(=O)c3ccc(C(=O)NC(C)c4ccc(NC(C)=O)cc4)s3)c2O)cc1` (stereo not drawn) [compound 126] cannot be ordered by fold induction at 1 µg/mL: at least 10 for the first, at least 10 for the second.

`C/C(=N\NC(=O)c1ccc(C(=O)NCc2cncn2C)s1)c1csc(-c2ccc(C(F)(F)F)cc2)c1O` [compound 52] and `C/C(=N\NC(=O)c1ccc(C(=O)NCc2cc(C)n(C)n2)s1)c1csc(-c2ccc(C(F)(F)F)cc2)c1O` [compound 56] fall in the same range of fold induction at 1 µg/mL: 5 to 10 for the first, 5 to 10 for the second.

`CCCNC(=O)c1ccc(C(=O)N/N=C(\C)c2csc(-c3ccc(Cl)cc3)c2O)s1` [compound 31] and `C/C(=N\NC(=O)c1ccc(C(=O)NCCO)s1)c1csc(-c2ccc(Cl)cc2)c1O` [compound 10] cannot be ordered by fold induction at 1 µg/mL: at least 10 for the first, at least 10 for the second.

`C/C(=N\NC(=O)c1ccc(C(=O)NCc2ccncn2)s1)c1csc(-c2ccc(Cl)c(Cl)c2)c1O` [compound 84] and `C/C(=N\NC(=O)c1ccc(C(=O)NCc2cccnn2)s1)c1csc(-c2ccc(Cl)c(Cl)c2)c1O` [compound 44] fall in the same range of fold induction at 1 µg/mL: 5 to 10 for the first, 5 to 10 for the second.

Compared with `C/C(=N\NC(=O)c1ccc(C(=O)NCCN2CCOCC2)s1)c1csc(-c2ccc(Cl)c(Cl)c2)c1O` [compound 23], `C/C(=N\NC(=O)c1ccc(C(=O)NCCN2CCCC2)s1)c1csc(-c2ccc(Cl)c(Cl)c2)c1O` [compound 67] is lower in fold induction at 1 µg/mL: 5 to 10 for the first, 3 to 5 for the second.

First: C/C(=N\NC(=O)c1ccc(C(=O)NCc2ccc(C(=O)O)cc2)s1)c1csc(-c2ccc(Cl)c(Cl)c2)c1O [compound 83]
Second: C/C(=N\NC(=O)c1ccc(C(=O)NCc2ccc(C#N)cc2)s1)c1csc(-c2ccc(Cl)c(Cl)c2)c1O [compound 60]
The fold induction at 1 µg/mL of the first is lower: 3 to 5 for the first, at least 10 for the second.

Compared with `C/C(=N\NC(=O)c1ccc(C(=O)NC2CC2)s1)c1csc(-c2ccc(Cl)c(Cl)c2)c1` [compound 21], `CCN(C)C(=O)c1ccc(C(=O)N/N=C(\C)c2csc(-c3ccc(Cl)c(Cl)c3)c2O)s1` [compound 81] is lower in fold induction at 1 µg/mL: at least 10 for the first, 3 to 5 for the second.

`C/C(=N\NC(=O)c1ccc(C(=O)NC(C)C)s1)c1csc(-c2ccc(Cl)cc2)c1O` [compound 77] and `CCN(CC)C(=O)c1ccc(C(=O)N/N=C(\C)c2csc(-c3ccc(Cl)cc3)c2O)s1` [compound 71] fall in the same range of fold induction at 1 µg/mL: 5 to 10 for the first, 5 to 10 for the second.

`C/C(=N\NC(=O)c1ccc(C(=O)NCc2ccnn2C)s1)c1csc(-c2ccc(Cl)cc2)c1O` [compound 58] and `C/C(=N\NC(=O)c1ccc(C(=O)NCCN2CCOCC2)s1)c1csc(-c2ccc(OC(F)(F)F)cc2)c1O` [compound 29] cannot be ordered by fold induction at 1 µg/mL: 5 to 10 for the first, at least 10 for the second.

`C/C(=N\NC(=O)c1ccc(C(=O)N(C(C)C)C(C)C)s1)c1csc(-c2ccc(Cl)c(Cl)c2)c1O` [compound 28] was tested, and the fold induction at 1 µg/mL was at least 10.
